Experimental data reported in ChEMBL document CHEMBL1141031, “Stereo-controlled synthesis of novel photoreactive gamma-secretase inhibitors” (Bioorg Med Chem Lett, 2009).
Calls of active or inactive are those of the source. The rule behind the calls is not given here.

Key:
Gamma-secretase = assay: Inhibition of human gamma secretase assessed as effect on C100Flag substrate cleavage; type: protein-complex assay
[1] = target: Presenilin-1 (Homo sapiens) (UniProt P49768); assay: Binding affinity to presenilin-1 in UV irradiated human HeLa cells assessed as enzyme photolabeling at 10 uM in presence of 2 uM L-685,458 by SDS-PAGE based photocross linking study; type: cell-based
[2] = target: Presenilin-1 (Homo sapiens) (UniProt P49768); assay: Binding affinity to presenilin-1 in UV irradiated human HeLa cells assessed as enzyme photolabeling at 10 uM by SDS-PAGE based photocross linking study; type: cell-based

Row | IC50 (Gamma-secretase) | Activity [1] | Activity [2] | SMILES
1 | 0.7 nM | – | – | COC(=O)[C@H](Cc1ccccc1)NC(=O)[C@H](CC(C)C)NC(=O)[C@H](Cc1ccccc1)C[C@@H](O)[C@H](Cc1ccc(C(=O)c2ccccc2)cc1)NC(=O)OC(C)(C)C
2 | 0.6 nM | inactive | Active | CC(C)C[C@H](NC(=O)[C@H](Cc1ccccc1)C[C@@H](O)[C@H](Cc1ccc(C(=O)c2ccccc2)cc1)NC(=O)OC(C)(C)C)C(=O)N[C@@H](Cc1ccccc1)C(=O)NCCCCCNC(=O)CCCCC1SC[C@H]2NC(=O)N[C@@H]12 (some centres undefined)
